According to patent US11274214B2, “Composition of water based coating with a low content of volatile organic compounds and high resistance to dirt handle, and, use of water based coating” (OXITENO S.A. INDÚSTRIA E COMÉRCIO, priority 2017, dated 2022):

What was measured:
[1] = Physical and chemical properties of isopentyl succinate
[2] = Estimated Hansen solubility parameters and octanol/water partition coefficient of coalescents
Excerpt: In order to perform the comparative tests, two commercially available products, Texanol™ and OPTIFILM 300™, were used.

**Q.** With isopentyl succinate as the substance, how does the Density [1] read?
**A.** Its Density is 0.966 g/mL.

**Q.** What about the Freezing point [1] of the same substance?
**A.** The Freezing point was −25 °C.

**Q.** And the Relative evaporation rate [1]?
**A.** Its Relative evaporation rate is 0.029.

**Q.** And the “Volatile content according to method 24” value ([1]; method 24)?
**A.** Its value is 50%.

**Q.** What about the “Solubility in water (suggested by octanol/water partition coefficients)” value [2] of the same substance?
**A.** Its value is “low solubility in water”.
